Experiments:
[1] = test system: spleen; assay: In vivo Fluc activity of FlucmRNA-loaded LNP by in vivo imaging, spleen; settings: Balb/c mice, FlucmRNA-loaded LNP i.v. 0.1 mg mRNA/kg, 6 hours
Procedure, shortened: (§1)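 Read-out is average radiance (p/s/cm2/sr, about 560 nm) from whole-animal imaging of liver and spleen 6 h post-dose, after tail-vein luciferin at 1.5 mg/mouse. Dosing was intravenous, 0.1 mg mRNA/kg, in 7-week-old female Balb/c mice.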

[2] = siRNA/mRNA encapsulation rate by Ribogreen reagent (section IV); format: physicochemical; settings: for % siRNA encapsulation: F7siRNA-loaded LNP, 50:10:38.5:1.5, N/P ratio 6; for % mRNA encapsulation: FlucmRNA-loaded LNP, 50:10:38.5:1.5
Procedure, shortened: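 Encapsulation % was calculated as (total − surface nucleic acid)/total × 100, with both values measured by RiboGreen fluorescence at 485/528 nm. Total RNA was read on LNPs lysed with 1% Triton X-100 at 1.2 μg/mL, and surface RNA on intact LNPs at 8 μg/mL in TE buffer. Concentrations came from a 0-2.5 μg/mL Triton-containing calibration curve.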

[3] = test system: F7; assay: In vivo F7 knockdown, plasma F7 enzyme activity (BIOPHEN FVII), Balb/c mice; settings: i.v. 0.025 mg siRNA/kg, plasma at 24 hours
Procedure, shortened: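 Plasma factor VII activity was read 24 h after a single intravenous 0.025 mg siRNA/kg dose of siRNA-loaded lipid nanoparticles in 5-week-old female Balb/c mice. Activity is relative to untreated animals (100%) and normalised to the MC3 nanoparticle benchmark (=1).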

[4] = Average particle size and PDI by dynamic light scattering (Zetasizer Nano ZS); format: physicochemical
Method: (§2) The average particle size (number-average value) and PDI in PBS(−) and zeta potential in 10 mM HEPES buffer solution (pH 7.4) of lipid nanoparticles were measured using “Zetasizer Nano ZS ZEN3600”, an analyzer utilizing dynamic light scattering (manufactured by Malvern).

[5] = test system: liver; assay: In vivo Fluc activity of FlucmRNA-loaded LNP by in vivo imaging, liver; settings: Balb/c mice, FlucmRNA-loaded LNP i.v. 0.1 mg mRNA/kg, 6 hours
Procedure, shortened: as §1

[6] = test system: F7; assay: In vivo F7 knockdown, plasma F7 enzyme activity, ICR mice; settings: i.v. 0.003-0.1 mg siRNA/kg, plasma at 24 hours, compared with LNP of CL4H6 or CL15H6 (FIG. 2)
Method: Then, each prepared F7siRNA-loaded lipid nanoparticles were administered to ICR mice (4 weeks old, female) and in vivo F7 knockdown activity was examined.
Specifically, each F7siRNA-loaded lipid nanoparticles were intravenously administered to ICR mice at 0.003-0.1 mg siRNA/kg, and plasma F7 enzyme activity at 24 hours later was measured. Relative plasma F7 enzyme activity (%) of mice administered each F7siRNA-loaded lipid nanoparticles was calculated using plasma F7 enzyme activity of untreated mice as 100%. FIG. 2(B) is the results of intravenous administration of each F7siRNA-loaded lipid nanoparticle at 0.1 mg siRNA/kg.

[7] = Zeta potential in 10 mM HEPES buffer (pH 7.4); format: physicochemical
Method: as §2

[8] = Nucleic acid encapsulation rate by Ribogreen (section II); format: physicochemical; settings: for % mRNA encapsulation: NlucmRNA-loaded LNP, 60:10:40:1; for % pDNA encapsulation: pFluc-loaded LNP
Method: The encapsulation rates of siRNA, mRNA, and pDNA of lipid nanoparticles were measured using Ribogreen (manufactured by life technologies).

[9] = NlucmRNA-loaded LNP, 60:10:40:1
[10] = NlucmRNA-loaded LNP, lipid:DSPC:cholesterol:PEG-DMG 60:10:40:1
[11] = pFluc-loaded LNP, 50:10:40:1.5, N/P ratio 6
[12] = pFluc-loaded LNP, 50:10:40:1.5, N/P ratio 9

SMILES	Fluc Activity in spleen [1]	% siRNA encapsulation [2] [%]	% mRNA encapsulation [2] [%]	F7 enzyme activity (Ratio using MC3 as 1) ([3]; relative plasma F7 activity of MC3 LNP as 1)	PdI [4, 9]	ζ-Average (nm) [4, 10] [nm]	ζ-Average (nm) [4, 11] [nm]	ζ-Average (nm) [4, 12] [nm]	PdI ([4]; pFluc-loaded LNP, N/P ratio 6)	PdI ([4]; pFluc-loaded LNP, N/P ratio 9)	Fluc Activity in liver [5]	in vivo F7 knockdown activity, compared [6]	ζ-potential (mV) [7, 9] [mV]	ζ-potential (mV) ([7]; pFluc-loaded LNP, N/P ratio 6)	ζ-potential (mV) ([7]; pFluc-loaded LNP, N/P ratio 9)	% mRNA encapsulation [8] [%]	% pDNA encapsulation ([8]; N/P ratio 6) [%]	% pDNA encapsulation ([8]; N/P ratio 9) [%]	F7 enzyme activity (%) ([3]; untreated mice as 100%)
CCCCCCCCC(CCCCCC)C(=O)OCCCCCCC(O)(CCCCCCOC(=O)C(CCCCCC)CCCCCCCC)CCCCOC(=O)C1CCN(C)CC1 (stereo not drawn) [CL15F6]	5.76E+06 Avg Radiance [p/s/cm2/sr]	100.5	99.69	1.52	0.162	92.52	109.4	105.7 ± 8.6	0.07	0.13 ± 0.02	6.28E+06 Avg Radiance [p/s/cm2/sr]	equivalent in vivo F7 knockdown activity	−2.16	−2.02	−1.2 ± 0.4	90.3	95.4	93.1 ± 3.3	
CCCN(CCC)CCCCC(O)(CCCCCCOC(=O)C(CCC(C)CC(C)(C)C)C(C)CC(C)(C)C)CCCCCCOC(=O)C(CCC(C)CC(C)(C)C)C(C)CC(C)(C)C (stereo not drawn) [CL4G6, 7-(4-(dipropylamino)butyl)-7-hydroxytridecan-1,13-diyl bis(2-(4.4-dimethylpentan-2-yl)-5,7,7-trimethyloctanoate)]	2.08E+06 Avg Radiance [p/s/cm2/sr]	100.1	99.8		0.13	109.6	74.48	90.6 ± 7	0.11	0.19 ± 0.05	4.58E+07 Avg Radiance [p/s/cm2/sr]	equivalent in vivo F7 knockdown activity	−1.76	−2.46	−1.3 ± 0.7	91.7	97.6	94.5 ± 3.6	7.6
